Test results as given in ChEMBL document CHEMBL1201862, “PubChem BioAssay data set” (2004).
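Five compound concentrations were applied to cells in 96-well plates for 48 hours; endpoints were derived by simple linear interpolation of the resulting dose-response curve. Here, GI50 denotes the concentration required for 50% inhibition of growth.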 Activity calls are given as the source filed them. Cut-off read from the data, not from the text of the source: active = GI50 up to about 1.1 µM and inactive = higher.

What was measured:
Experiment in all cases: NCI tumour cell line growth inhibition, 48 h
[1] = system: 786-0
[2] = system: A498
[3] = system: A549
[4] = system: ACHN
[5] = system: BT-549
[6] = system: CAKI-1
[7] = system: CCRF-CEM
[8] = system: COLO 205
[9] = system: DU-145
[10] = system: EKVX
[11] = system: HCC 2998
[12] = system: HCT-116
[13] = system: HCT-15
[14] = system: HL-60
[15] = system: HOP-62
[16] = system: HOP-92
[17] = system: HT-29
[18] = system: Hs-578T
[19] = system: IGROV-1
[20] = system: K562
[21] = system: KM12
[22] = system: LOX IMVI
[23] = system: M14
[24] = system: MCF7
[25] = system: MDA-MB-231
[26] = system: MDA-MB-435
[27] = system: MDA-N
[28] = system: MOLT-4
[29] = system: Malme-3M
[30] = system: NCI-H226
[31] = system: NCI-H23
[32] = system: NCI-H460
[33] = system: NCI-H522
[34] = system: NCI/ADR-RES
[35] = system: OVCAR-3
[36] = system: OVCAR-4
[37] = system: OVCAR-5
[38] = system: OVCAR-8
[39] = system: PC-3
[40] = system: RPMI-8226
[41] = system: RXF 393
[42] = system: SF-268
[43] = system: SF-295
[44] = system: SF-539
[45] = system: SK-MEL-28
[46] = system: SK-MEL-2
[47] = system: SK-MEL-5
[48] = system: SK-OV-3
[49] = system: SN12C
[50] = system: SNB-19
[51] = system: SNB-75
[52] = system: SR
[53] = system: SW-620
[54] = system: T47D
[55] = system: TK-10
[56] = system: U-251
[57] = system: UACC-257
[58] = system: UACC-62
[59] = system: UO-31

What does the source list for O=C1CSC(c2ccccc2O)N1c1nc2cc3sc(N4C(=O)CSC4c4ccccc4O)nc3cc2s1 (stereo not drawn)?
GI50 [1]: > 100 µM (inactive); GI50 [2]: > 42.9 µM (inactive); GI50 [3]: 3.85 µM (inactive); GI50 [4]: > 44.6 µM (inactive); GI50 [5]: 11.9 µM (inactive); GI50 [6]: 37.4 µM (inactive); GI50 [7]: 3.93 µM (inactive); GI50 [8]: 3.61 µM (inactive); GI50 [9]: 34.7 µM (inactive); GI50 [10]: 61.9 µM (inactive); GI50 [11]: > 100 µM (inactive); GI50 [12]: 20.7 µM (inactive); GI50 [13]: 7.05 µM; GI50 [14]: 31.6 µM (inactive); GI50 [15]: > 100 µM (inactive); GI50 [16]: > 42.5 µM (inactive); GI50 [17]: 20 µM (inactive); GI50 [18]: > 58.9 µM (inactive); GI50 [19]: 18.9 µM (inactive); GI50 [20]: 64.3 µM (inactive); GI50 [21]: > 68.4 µM (inactive); GI50 [22]: 24 µM (inactive); GI50 [23]: > 69.5 µM (inactive); GI50 [24]: 11.5 µM (inactive); GI50 [25]: > 57.8 µM (inactive); GI50 [26]: 34.3 µM (inactive); GI50 [27]: 34.8 µM (inactive); GI50 [28]: 4.06 µM (inactive); GI50 [29]: > 77.3 µM (inactive); GI50 [30]: 21 µM (inactive); GI50 [31]: 9.57 µM (inactive); GI50 [32]: 2.3 µM (inactive); GI50 [33]: 7.06 µM (inactive); GI50 [34]: 8.47 µM (inactive); GI50 [35]: > 100 µM (inactive); GI50 [36]: 44.1 µM (inactive); GI50 [37]: > 100 µM (inactive); GI50 [38]: 37.2 µM (inactive); GI50 [39]: 45.7 µM (inactive); GI50 [40]: 32.1 µM (inactive); GI50 [41]: > 100 µM (inactive); GI50 [42]: > 86.9 µM (inactive); GI50 [43]: > 100 µM (inactive); GI50 [44]: 59.6 µM (inactive); GI50 [45]: > 79.1 µM (inactive); GI50 [46]: > 100 µM (inactive); GI50 [47]: 50.5 µM (inactive); GI50 [48]: > 100 µM (inactive); GI50 [49]: > 40.5 µM (inactive); GI50 [50]: 42 µM (inactive); GI50 [51]: 99.8 µM (inactive); GI50 [52]: 7.71 µM (inactive); GI50 [53]: 22.4 µM (inactive); GI50 [54]: 47.8 µM (inactive); GI50 [55]: > 100 µM (inactive); GI50 [56]: 36.3 µM (inactive); GI50 [57]: > 36.3 µM (inactive); GI50 [58]: > 87.5 µM (inactive); GI50 [59]: 23.3 µM (inactive)

With COc1cc2c(c(OC)c1OC)C(=O)[C@@H]1[C@H]2N1C(=O)NCCCl as the molecule, how does the GI50 [1] read?
Its GI50 is > 100 µM (inactive).

And the GI50 [2]?
The GI50 was 70.1 µM (inactive).

What about the GI50 [3] of the same molecule?
Its GI50 is 58.2 µM (inactive).

And the GI50 [4]?
The GI50 was 50.5 µM (inactive).

What about the GI50 [5] of the same molecule?
The GI50 was 80.5 µM (inactive).

And the GI50 [6]?
The GI50 was 56.8 µM (inactive).

What about the GI50 [7] of the same molecule?
Its GI50 is 30.1 µM (inactive).

What about the GI50 [8] of the same molecule?
Its GI50 is 27 µM (inactive).

What about the GI50 [9] of the same molecule?
Its GI50 is 66.8 µM (inactive).

And the GI50 [10]?
The GI50 was 53 µM (inactive).

What about the GI50 [11] of the same molecule?
The GI50 was > 100 µM (inactive).

And the GI50 [12]?
Its GI50 is 41.7 µM (inactive).

And the GI50 [13]?
The GI50 was 36.1 µM.

And the GI50 [14]?
The GI50 was 29.2 µM (inactive).

What about the GI50 [15] of the same molecule?
Its GI50 is > 100 µM (inactive).

What about the GI50 [16] of the same molecule?
Its GI50 is > 100 µM (inactive).

What about the GI50 [17] of the same molecule?
Its GI50 is 36 µM (inactive).

And the GI50 [18]?
The GI50 was 61.2 µM (inactive).

What about the GI50 [19] of the same molecule?
Its GI50 is 33.5 µM (inactive).

What about the GI50 [20] of the same molecule?
The GI50 was 45.8 µM (inactive).

And the GI50 [21]?
The GI50 was 53.3 µM (inactive).

What about the GI50 [22] of the same molecule?
Its GI50 is 39.3 µM (inactive).

And the GI50 [23]?
Its GI50 is 50.4 µM (inactive).

What about the GI50 [24] of the same molecule?
The GI50 was 27.6 µM (inactive).

And the GI50 [25]?
Its GI50 is > 100 µM (inactive).

What about the GI50 [26] of the same molecule?
Its GI50 is 32.6 µM (inactive).

What about the GI50 [27] of the same molecule?
Its GI50 is 32.4 µM (inactive).

And the GI50 [28]?
Its GI50 is 50.7 µM (inactive).

What about the GI50 [29] of the same molecule?
The GI50 was 64.7 µM (inactive).

What about the GI50 [30] of the same molecule?
Its GI50 is 64 µM (inactive).

And the GI50 [31]?
The GI50 was 43.4 µM (inactive).

And the GI50 [32]?
Its GI50 is 40.6 µM (inactive).

And the GI50 [33]?
The GI50 was 49.2 µM (inactive).

What about the GI50 [34] of the same molecule?
The GI50 was > 100 µM (inactive).

And the GI50 [35]?
Its GI50 is 38.4 µM (inactive).

And the GI50 [36]?
Its GI50 is 52.4 µM (inactive).

What about the GI50 [37] of the same molecule?
Its GI50 is > 100 µM (inactive).

And the GI50 [38]?
Its GI50 is 79.4 µM (inactive).

What about the GI50 [39] of the same molecule?
Its GI50 is 58.2 µM (inactive).

And the GI50 [40]?
Its GI50 is 70 µM (inactive).

And the GI50 [41]?
Its GI50 is 53.3 µM (inactive).

What about the GI50 [42] of the same molecule?
Its GI50 is 76.9 µM (inactive).

What about the GI50 [43] of the same molecule?
Its GI50 is > 100 µM (inactive).

What about the GI50 [44] of the same molecule?
The GI50 was 72.4 µM (inactive).

And the GI50 [45]?
Its GI50 is > 100 µM (inactive).

What about the GI50 [46] of the same molecule?
The GI50 was > 100 µM (inactive).

What about the GI50 [47] of the same molecule?
The GI50 was 46.8 µM (inactive).

What about the GI50 [48] of the same molecule?
The GI50 was > 100 µM (inactive).

And the GI50 [49]?
The GI50 was 54.7 µM (inactive).

What about the GI50 [50] of the same molecule?
Its GI50 is > 100 µM (inactive).

And the GI50 [51]?
The GI50 was 40.9 µM (inactive).

And the GI50 [52]?
The GI50 was 46.2 µM (inactive).

And the GI50 [53]?
Its GI50 is > 100 µM (inactive).

And the GI50 [54]?
Its GI50 is 48.3 µM (inactive).

And the GI50 [55]?
Its GI50 is > 100 µM (inactive).

And the GI50 [56]?
The GI50 was 37.1 µM (inactive).

And the GI50 [57]?
Its GI50 is 79.8 µM (inactive).

And the GI50 [58]?
Its GI50 is 61.4 µM (inactive).

And the GI50 [59]?
Its GI50 is 73.5 µM (inactive).
